Assay results: patent US9155301B2, “Antimicrobial agent comprising a cysteine component covalently bound to a substrate in particular by binding through an S-S bridge via a spacer molecule” (priority 2005, dated 2015)

Test system: Staphylococcus aureus (B5381, a clinical isolate)
Test: Inhibition of bacterial growth in culture incubated with modified surface
Type: cell-based
Conditions: Example 11; dissolved in culture at 50 μg/ml and 5 μg/ml; initial culture exceeding 4 million cfu/ml
Procedure: The following analysis was performed with three (3) different strains of bacteria, but the applications are not limited to these: A clinical isolate (from a patient with sepsis) of Gram positive bacterium Staphylococcus aureus, (a clinical isolate B5381), the Gram positive bacterium Bacillus megaterium (strain Bm11), the Gram negative bacterium Escherichia coli (strain D21). This selection of bacteria comprises both Gram positive and Gram negative bacteria including bacteria that are of significant problems clinically.
[…] LB medium (Luria Bertani broth) has been inoculated with specific bacterial strain, but not limited to this medium. The strain selected has been plated on an agar plate of selected medium the day before, and permitted to grow over night at 37° C. Several colonies were scraped from the plate and used to inoculate the medium which subsequently was allowed to grow up to an optical density of 0.4. […] The number of bacteria was determined by plating serial dilutions and counting colonies in the appropriate dilutions. […]
Subsequent to incubation (in the presently described case: 2.5 h), the disc was removed from each tube using a sterile pair of tweezers. The culture in which the disc had been incubated was in parallel transferred to a separate sterile eppendorf tube, and its titer was determined as described. […]

With `N[C@@H](CS)C(=O)O` [dissolved L-cysteine, L-cysteine] the “inhibition of growth in culture with dissolved substance” value was “No inhibition”.
